# Experimental data published in patent US4997834A, “Trans-4-amino(alkyl)-1-pyridylcarbamoylcyclohexane compounds and pharmaceutical use thereof” (priority 1988, dated 1991).
# How the values were obtained:
# right vertebral artery = experiment: Effect on vertebral blood flow (perfused right vertebral artery, anesthetized dogs); type: in vivo, adult mongrel dogs; conditions: doses 10-100 μg (A); for Effect of vertebral blood flow, ED100: dose giving 100% of the maximum blood flow increase by 100 μg papaverine hydrochloride, 30-100 μg (B, C) into vertebral artery; for Effect of vertebral blood flow, T1/2 (duration of the effects): injection into vertebral artery, 30-100 μg (B, C)
# Description: PHARMACOLOGICAL EXPERIMENT 3: EFFECT ON VERTEBRAL BLOOD FLOW
# Groups of two adult mongrel dogs were anesthetized with the intraveneous administration of 25 mg/kg of body weight of sodium pentobarbital.
# The right vertebral artery was perfused and the blood flow volume was measured. Test compound was injected in the vertebral artery. The percentage of maximum increase of blood flow by the injection of 100 μg of papaverine hydrochloride (1-[(3,4-dimethoxyphenyl)methyl]-6,7-dimethoxyisoquinoline hydrochloride) in vertebral artery was taken as 100% . The effects of test compound on vertebral artery were expressed as ED100 (μg), a dose required to obtain 100% of the increase of blood flow. Each of half-life (T 1/2, minute) was measured as the duration of the effects.
# [1] = test system: spontaneously hypertensive rats; experiment: Antihypertensive effect: systolic blood pressure by tail cuff method in spontaneously hypertensive rats; type: in vivo, male spontaneously hypertensive rats; conditions: 30 mg/kg orally, measured three hours after administration
# Description: PHARMACOLOGICAL EXPERIMENT 1: ANTIHYPERTENSIVE EFFECT
# Each of 30 mg/kg of test compounds dissolving in 0.5% of hydroxypropyl-methylcellurose was orally administered to groups of 3 to 5 male spontaneously hypertensive rats weighing 350-450 g. Three hours after the administration, the systolic blood pressure was measured by tail cuff method and antihypertensive effects are examined.
# left coronary artery = experiment: Effect on coronary blood flow (perfused left coronary artery, anesthetized dogs); type: in vivo, adult mongrel dogs; conditions: pentobarbital-anesthetized; for Effect of coronary blood flow, ED50 (in artery): dose increasing coronary blood flow by half of the effect of 3 μg intracoronary nifedipine, test dose 10-300 μg into coronary artery; for Effect of coronary blood flow, T1/2 (duration of effects): injection into coronary artery, 10-300 μg
# Description: PHARMACOLOGICAL EXPERIMENT 2: EFFECT ON CORONARY BLOOD FLOW
# Groups of 2 to 3 adult mongrel dogs were anesthetized with the intraveneous administration of 30 mg/kg of body weight of sodium pentobarbital.
# According to the method of Yago et. al. described in Folia Pharmacologica Japonica, vol. 57, p.380 (1961), the left coronary artery was perfused and its blood flow volume was measured. Test compound was injected into the coronary artery at a […] of 10-300 μg. The effects of test compound on coronary blood flow were expressed as ED50 (μg), a dose required to increase the coronary blood flow by a half of the effects of the coronary-artery injection of 3 μg of nifedipine [Dimethyl 2,6-dimethyl-4-(2-nitrophenyl)-1,4-dihydropyridine-3,5-dicarboxylate]. Each of half-life (T 1/2, minute) was measured as the duration of effects.
# ddY strain mice = experiment: Acute toxicity, intraperitoneal, mice; type: in vivo
# Excerpt: EXPERIMENT OF ACUTE TOXICITY
# Each of test compounds of A, B and C was intraperitoneally administered to ddY strain mice.
# [2] = intraperitoneal dose of 100 mg/kg, five days after administration
SMILES,"Effect of vertebral blood flow, ED100 (right vertebral artery) [µg]","Effect of vertebral blood flow, T1/2 (duration of the effects) (right vertebral artery) [min]",Maximum lowering value of systolic blood pressure [1] [mmHg],"Effect of coronary blood flow, ED50 (in artery) (left coronary artery) [µg]","Effect of coronary blood flow, T1/2 (duration of effects) (left coronary artery) [min]",Survival of mice (ddY strain mice; [2]),"Survival of mice (ddY strain mice; mouse, in vivo, ip, 100 mg/kg)"
"C[C@H]1C[C@H](CN)CC[C@H]1C(=O)Nc1ccncc1 (relative stereo) [Test Compound B, Trans-4-aminomethyl-cis-2-methyl-1-(4-pyridylcarbamoyl)cyclohexane]",74,4.4,-44,35,4.0,All mice survived,–
"CC(N)[C@H]1CC[C@H](C(=O)Nc2ccncc2)CC1 (relative stereo) [Test Compound C, Trans-4-(1-aminoethyl)-1-(4-pyridylcarbamoyl)cyclohexane]",58,3.0,-52,34,3.0,–,All mice survived
"NC[C@H]1CC[C@H](C(=O)Nc2ccncc2)CC1 [Test Compound A, Trans-4-aminomethyl-1-(4-pyridylcarbamoyl)cyclohexane]",35,2.1,–,56,1.7,All mice survived,–
